Measurements reported in ChEMBL document CHEMBL5360575, “Broad-spectrum coronavirus 3C-like protease peptidomimetic inhibitors effectively block SARS-CoV-2 replication in cells: Design, synthesis, biological evaluation, and X-ray structure determination” (Eur J Med Chem, 2023).

Tests used:
[1] = target: T1, Replicase polyprotein 1ab (Severe acute respiratory syndrome coronavirus 2, UniProt P0DTD1); assay: Inhibition of SARS-CoV-2 3CL protease expressed in Escherichia coli BL21(DE3) cells using DABCYL-KTSAVLQSGFRKM-EDANS as substrate preincubated for 30 mins followed by substrate addition and measured after 15 mins by FRET assay
[2] = Inhibition of MERS 3CL protease expressed in Escherichia coli BL21(DE3) cells using DABCYL-KTSAVLQSGFRKM-EDANS as substrate preincubated for 30 mins followed by substrate addition and measured after 30 mins by FRET assay; set-up: species or system Middle East respiratory syndrome-related coronavirus
BEAS-2B = assay: Cytotoxicity against human BEAS-2B cells assessed as reduction in cell viability; format: toxicity, cell-based
SARS-CoV-2 [3] = details: Severe acute respiratory syndrome coronavirus 2, […], Calu-3, 48 h
[4] = target: T1, Replicase polyprotein 1ab; assay: Covalent binding affinity to SARS-CoV-2 3CL protease expressed in Escherichia coli BL21(DE3) cells after 30 mins by FRET assay
[5] = target: Replicase polyprotein 1ab (Severe acute respiratory syndrome coronavirus 2) (UniProt P0DTD1); details: dose 40.0 µM, time 30.0 min
SARS-CoV-2 [6] = assay: microbe, parasite or virus in culture; details: Severe acute respiratory syndrome coronavirus 2, […], Vero C1008
SARS-CoV-2 [7] = assay: microbe, parasite or virus in culture; details: Severe acute respiratory syndrome coronavirus 2, […], Vero C1008, 72 h
Human coronavirus 229E = assay: microbe, parasite or virus in culture; details: BEAS-2B
[8] = system: Middle East respiratory syndrome-related coronavirus; assay: microbe, parasite or virus in culture; details: Vero C1008, 96 h
[9] = Selectivity index, ratio of CC50 for human BEAS2B cells to EC50 for antiviral activity against HCoV229E infected in BEAS-2B cells; format: toxicity, cell-based; details: read-out: Ratio CC50/EC50

SMILES	IC50 [1] [µM]	IC50 [2] [pM]	CC50 (BEAS-2B) [µM]	EC50 (SARS-CoV-2 [3]) [µM]	Ki [4] [µM]	ΔTm [5] [°C]	EC50 (SARS-CoV-2 [6]) [µM]	EC50 (SARS-CoV-2 [7]) [µM]	EC50 (Human coronavirus 229E) [µM]	EC50 [8] [µM]	selectivity ratio [9]
CC(C)[C@H](NC(=O)OC(C)(C)C)C(=O)N1C[C@@H]2CCC[C@@H]2[C@H]1C(=O)N[C@H](C=O)C[C@@H]1CCNC1=O	0.005	143000	28.4	0.449	0.0032	4	5.3	0.21	0.24		
C[C@H](OC(C)(C)C)[C@H](NC(=O)OC(C)(C)C)C(=O)N1CCC[C@H]1C(=O)N[C@H](C=O)C[C@@H]1CCNC1=O	0.0053	22					22.9	1.86			
CC(C)[C@H](NC(=O)OC(C)(C)C)C(=O)N1C[C@H](OC(C)(C)C)C[C@H]1C(=O)N[C@H](C=O)C[C@@H]1CCNC1=O	0.0025	26000	48.2				33.4	3.4	> 48.2	33.6	
CC(C)[C@H](NC(=O)OC(C)(C)C)C(=O)N1CCC[C@H]1C(=O)N[C@H](C=O)C[C@@H]1CCNC1=O	0.00623	20	17.9				22.5	16	> 17.9	4.56	
CO[C@H]1C[C@@H](C(=O)N[C@H](C=O)C[C@@H]2CCNC2=O)N(C(=O)[C@@H](NC(=O)OC(C)(C)C)C(C)C)C1	0.00024	7	3.6				23.6	8.7	> 3.6	0.58	
CC(C)C[C@H](NC(=O)[C@@H](NC(=O)OC(C)(C)C)C(C)C)C(=O)N[C@H](C=O)C[C@@H]1CCNC1=O	0.0007	20	70.5				40.1	3.6	2.3	1.58	> 30.1
CC(C)[C@H](NC(=O)OC(C)(C)C)C(=O)N1C[C@@H](C)C[C@H]1C(=O)N[C@H](C=O)C[C@@H]1CCNC1=O	0.00047	2330					47.2	16.9			
CC(C)C[C@H](NC(=O)OCc1ccccc1)C(=O)N[C@@H](C[C@@H]1CCNC1=O)C(O)S(=O)(=O)O (stereo not given in full)			> 100								
CC(C)[C@H](NC(=O)OC(C)(C)C)C(=O)N1CCCC[C@H]1C(=O)N[C@H](C=O)C[C@@H]1CCNC1=O	3.35						> 100	5.83			
